The test system of series [1] is NF-κB. The series is described as follows: 293-cell pNF-κB-luc reporter assay, TNF-α induced. The format is cell-based. As to conditions: HEK293 cells, NF-κB driven luciferase expression; read-out: 293/NFkB-luc EC50. Put shortly: (§1)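 HEK293 cells with stably integrated NF-κB reporters, pNF-κB-luc (3 elements) or pTRH1-NF-κB-dscGFP (4 elements). Cells pretreated 2 h with 0–40 μM compound, then stimulated with 20 ng/ml TNF-α for 18 h; luminescence or fluorescence read. Activity referenced to 0.5% DMSO control; median of three independent experiments.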
Background: A reporter such as luciferase makes a cellular process visible.

Series [2] deals with NF-κB. The series is described as follows: 293-cell pTRH1-NF-κB-dscGFP reporter assay, TNF-α induced. In kind it is cell-based. As to conditions: Homo sapiens, HEK293, HEK293 cells, NF-κB driven GFP expression; read-out: NF-kB/293/GFP EC50. In short, it runs like this:
as §1

Series [3] has as its system IL-6 release from RAW264.7 cells. The series is described as follows: IL-6 release from LPS stimulated RAW264.7 cells. The format is cell-based, mouse. Conditions: Mus musculus, RAW264.7, RAW 264.7 cells. On the procedure:
Specifically, A and B show the effects of the compound of Example 1 on soluble PGE2 and Il-6 secretion from RAW264.7 cells stimulated by 1 μg/mL of LPS. The cells were treated with the indicated concentrations of the compound of Example 1 for 2 hours, and then LPS was added and incubation continued for 4 hours. […]

Series [4] has as its system PGE2 release from RAW264.7 cells. The series is described as follows: PGE2 release from LPS stimulated RAW264.7 cells. In kind it is cell-based, mouse. As to conditions: Mus musculus, RAW264.7, RAW 264.7 cells. On the procedure: Specifically, A and B show the effects of the compound of Example 1 on soluble PGE2 and Il-6 secretion from RAW264.7 cells stimulated by 1 μg/mL of LPS. The cells were treated with the indicated concentrations of the compound of Example 1 for 2 hours, and then LPS was added and incubation continued for 4 hours.
LPS stimulation induces the expression of COX-2 the enzyme responsible for prostaglandin E2.

Another series addresses p65 (RelA) (Homo sapiens, UniProt Q04206). The series is described as follows: TransAM NF-κB Family DNA Binding ELISA, p65. As to conditions: p65 binding IC50 (uM), binding to NF-κB sites.
The next series addresses T1, p50 (Homo sapiens, UniProt P19838).
T1 sequence (P19838 1-433 limits assumed): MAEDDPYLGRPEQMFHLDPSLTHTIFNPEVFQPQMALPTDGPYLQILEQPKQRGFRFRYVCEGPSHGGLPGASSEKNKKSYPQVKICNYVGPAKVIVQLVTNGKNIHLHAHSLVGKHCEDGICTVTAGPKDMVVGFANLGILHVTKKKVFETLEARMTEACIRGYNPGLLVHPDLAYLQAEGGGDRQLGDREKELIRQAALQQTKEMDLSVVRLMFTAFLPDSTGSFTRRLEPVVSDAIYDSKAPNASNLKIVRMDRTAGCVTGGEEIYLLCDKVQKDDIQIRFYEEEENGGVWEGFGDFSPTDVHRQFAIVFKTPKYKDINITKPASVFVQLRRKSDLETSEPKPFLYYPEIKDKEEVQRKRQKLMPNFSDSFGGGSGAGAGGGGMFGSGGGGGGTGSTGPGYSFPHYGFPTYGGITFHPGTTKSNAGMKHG
The series is described as follows: TransAM NF-κB Family DNA Binding ELISA, p50. As to conditions: for inhibition at 5 µM: read-out: p50 binding % inhibit. at 5 uM.

Another series has as its target T2, p52 (Homo sapiens, UniProt Q00653).
T2 sequence (Q00653 1-454 limits assumed): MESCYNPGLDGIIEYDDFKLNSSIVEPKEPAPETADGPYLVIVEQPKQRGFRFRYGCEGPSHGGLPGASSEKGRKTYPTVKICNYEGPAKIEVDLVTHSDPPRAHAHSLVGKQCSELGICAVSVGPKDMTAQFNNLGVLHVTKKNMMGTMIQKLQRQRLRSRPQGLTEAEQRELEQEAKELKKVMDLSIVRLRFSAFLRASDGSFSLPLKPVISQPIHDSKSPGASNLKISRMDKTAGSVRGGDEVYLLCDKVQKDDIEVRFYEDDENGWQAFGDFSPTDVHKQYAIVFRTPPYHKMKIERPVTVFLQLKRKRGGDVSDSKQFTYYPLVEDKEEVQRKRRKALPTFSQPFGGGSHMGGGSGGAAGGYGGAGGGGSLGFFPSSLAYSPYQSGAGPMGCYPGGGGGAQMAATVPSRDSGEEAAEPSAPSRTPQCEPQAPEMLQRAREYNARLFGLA
The series is described as follows: TransAM NF-κB Family DNA Binding ELISA, p52. As to conditions: for inhibition at 5 µM: read-out: p52 binding % inhibit. at 5 uM, at 5 uM. For orientation: ELISA stands for enzyme-linked immunosorbent assay.

The target of a further series is T3, RelB (Homo sapiens, UniProt Q01201).
T3 sequence (Q01201 1-579): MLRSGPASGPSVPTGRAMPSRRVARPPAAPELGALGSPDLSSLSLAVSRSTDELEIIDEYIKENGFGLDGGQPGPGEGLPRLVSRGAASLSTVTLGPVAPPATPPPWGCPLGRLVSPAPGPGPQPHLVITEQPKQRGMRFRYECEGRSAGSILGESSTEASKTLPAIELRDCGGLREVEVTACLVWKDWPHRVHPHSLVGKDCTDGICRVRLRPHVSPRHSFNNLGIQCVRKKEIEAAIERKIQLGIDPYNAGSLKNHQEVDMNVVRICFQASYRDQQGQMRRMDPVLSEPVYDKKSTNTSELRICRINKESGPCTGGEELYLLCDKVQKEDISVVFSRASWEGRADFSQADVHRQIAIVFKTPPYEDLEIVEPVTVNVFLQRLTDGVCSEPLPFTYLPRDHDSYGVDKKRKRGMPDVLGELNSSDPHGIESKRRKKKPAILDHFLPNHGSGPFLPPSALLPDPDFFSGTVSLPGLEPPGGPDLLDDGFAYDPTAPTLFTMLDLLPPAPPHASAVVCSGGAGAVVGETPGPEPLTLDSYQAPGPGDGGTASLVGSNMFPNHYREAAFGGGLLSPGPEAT
T3 sequence (Q00653 1-454 partner limits assumed): T2 sequence (Q00653 1-454 limits assumed)
The series is described as follows: TransAM NF-κB Family DNA Binding ELISA, RelB. As to conditions: read-out: RelB binding % inhibit. at 5 uM, at 5 uM.

The next series has as its target T4, c-Rel (Homo sapiens, UniProt Q04864).
T4 sequence (Q04864 2-619 limits assumed): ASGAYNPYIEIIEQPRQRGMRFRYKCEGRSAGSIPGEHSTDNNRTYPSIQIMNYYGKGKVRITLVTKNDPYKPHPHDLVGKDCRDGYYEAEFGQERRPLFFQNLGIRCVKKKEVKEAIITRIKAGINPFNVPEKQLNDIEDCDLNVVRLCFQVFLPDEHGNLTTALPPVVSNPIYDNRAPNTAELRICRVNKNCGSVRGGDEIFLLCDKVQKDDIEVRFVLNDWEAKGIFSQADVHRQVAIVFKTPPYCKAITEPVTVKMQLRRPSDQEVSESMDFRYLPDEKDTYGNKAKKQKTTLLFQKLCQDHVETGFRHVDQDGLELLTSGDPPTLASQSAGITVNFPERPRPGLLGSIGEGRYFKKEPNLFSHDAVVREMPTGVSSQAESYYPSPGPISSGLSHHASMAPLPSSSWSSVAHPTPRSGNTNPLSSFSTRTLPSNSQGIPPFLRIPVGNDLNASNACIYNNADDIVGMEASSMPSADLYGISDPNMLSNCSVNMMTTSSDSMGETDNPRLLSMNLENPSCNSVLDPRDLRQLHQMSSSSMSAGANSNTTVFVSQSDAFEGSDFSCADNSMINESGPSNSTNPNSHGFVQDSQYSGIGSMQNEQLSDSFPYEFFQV
The series is described as follows: TransAM NF-κB Family DNA Binding ELISA, c-Rel. Conditions: read-out: c-Rel binding % inhibit. at 5 uM, at 5 uM.

Series [5] relates to collagen-induced arthritis. The series is described as follows: Mouse model of collagen-induced rheumatoid arthritis (CIA).
Excerpt: Male DBA mice developed arthritis by injecting bovine CII collagen in tails at day 1 and day 21.

Bounds are passed on as bounds.

The text below walks through data of patent publication US8629164B2, “Inhibitors of NF-κB” (Profectus Biosciences, Inc., priority 2009, dated 2014).

One may read the IC50 as the concentration that gives 50% inhibition. A low value points to greater potency.

Sequence of p65 (RelA) (Q04206 whole entry): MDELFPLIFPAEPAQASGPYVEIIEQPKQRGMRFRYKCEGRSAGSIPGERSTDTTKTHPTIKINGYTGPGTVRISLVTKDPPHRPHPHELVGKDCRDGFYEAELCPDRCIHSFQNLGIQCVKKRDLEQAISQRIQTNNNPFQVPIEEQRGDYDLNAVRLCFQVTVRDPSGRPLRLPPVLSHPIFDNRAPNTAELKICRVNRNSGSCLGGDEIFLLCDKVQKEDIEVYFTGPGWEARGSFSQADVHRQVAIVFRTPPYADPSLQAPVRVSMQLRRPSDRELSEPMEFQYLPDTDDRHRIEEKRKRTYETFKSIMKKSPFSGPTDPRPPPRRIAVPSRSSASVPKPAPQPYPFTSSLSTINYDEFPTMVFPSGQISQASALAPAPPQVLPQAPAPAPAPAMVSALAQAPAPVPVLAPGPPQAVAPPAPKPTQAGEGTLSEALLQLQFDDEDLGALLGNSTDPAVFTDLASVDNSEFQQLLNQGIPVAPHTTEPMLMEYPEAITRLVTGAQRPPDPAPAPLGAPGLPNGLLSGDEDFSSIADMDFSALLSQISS
Description for RelB: (§2) Treated samples were then transferred to 30 μL Complete Binding Buffer (with DTT) in microplate wells pre-coated with the NF-κB consensus oligonucleotide. […] The plate was incubated for 1 hour at room temperature with gentle shaking and then washed 3 times with 200 μL 1× Wash Buffer. NF-κB p65, p50, p52, RelB, or c-Rel subunits bound to the plate were detected with 100 μL of the primary antibody (diluted 1:1000 in 1× Antibody Buffer) specific for that subunit. The plate was incubated for 1 hour at room temperature and then washed 3 times with 200 μL 1× Wash Buffer. Next, 100 μL of a HRP conjugated goat anti-rabbit antibody (diluted 1:1,000 in 1× Antibody Buffer) was added to each well. The plate was incubated for 1 hour at room temperature and then washed 4 times with 200 μL 1× Wash Buffer. 100 μL of room temperature Developing Solution was added to each well. The reaction was allowed to develop for 2-10 minutes until a medium dark blue color developed (depending on the subunit activity in the lot of extract or lot of recombinant protein used) and then the reaction was stopped with 100 μL Stop Solution yielding a yellow color. Absorbance was recorded using a Becton-Dickinson DTX 880 Multimode Detector at 450 nm with a reference wavelength subtracted at 620 nm.
Description for c-Rel: as §2
Description for p52: as §2
Description for p65 (RelA): as §2

As to `O=C(NC1=CC(=O)C2OC2C1O)c1cnc2ccc(Cl)cc2c1O` (racemic) [Example 5, (±)-6-chloro-4-hydroxy-quinoline-3-carboxylic acid-(2-hydroxy-5-oxo-7-oxa-bicyclo[4.1.0]hept-3-en-3-yl)-amide], the EC50 in the series with NF-κB [1] is greater than 38 µM; in the series on NF-κB [2] it was greater than 38 µM; in [3], 0.43 µM; in [4], 6.5 µM. Further, the IC50 on p65 (RelA) was 230 µM; at p50 (p50 binding IC50 (uM), cells without % sign), greater than 481 µM; on p52 (p52 binding IC50 (uM), cells without % sign) it was greater than 481 µM. The values for the inhibition at 5 µM on RelB and at c-Rel were 0% and 12%, respectively.
On to `O=C(NC1=CC(=O)C2OC2C1O)c1cnc2c(C(F)(F)F)cccc2c1O` (racemic) [Example 6, (±)-4-hydroxy-8-trifluoromethyl-quinoline-3-carboxylic acid-(2-hydroxy-5-oxo-7-oxa-bicyclo[4.1.0]hept-3-en-3-yl)-amide], for which the EC50 in the series with NF-κB [1] was found to be 18 µM; in the series with NF-κB [2] it was 3.4 µM; in [3], 0.9 µM; in [4] it was 6.2 µM. On p65 (RelA), the IC50 is 3.3 µM. Moreover, the inhibition at 5 µM came to 0% on p50, 7% at p52, 13% at RelB and 27% on c-Rel.
For `O=C(NC1=CC(=O)C2OC2C1O)c1cc(Cl)cnc1O` (racemic) [Example 7, (±)-5-chloro-2-hydroxy-N-(2-hydroxy-5-oxo-7-oxa-bicyclo[4.1.0]hept-3-en-3-yl)-nicotinamide], the EC50 with NF-κB [1] turned out to be 15 µM; in the series with NF-κB [2] it was 3.2 µM; in [3] it was 0.73 µM; in [4] it was 6.8 µM. At p65 (RelA), this compound registered an IC50 of 3.6 µM. Besides, the inhibition at 5 µM on p50 was 19%; at p52 it was 16%; on RelB it was 32%; on c-Rel, 63%.
Take `O=C(NC1=CC(=O)C2OC2C1O)c1nc2ccccc2nc1O` (racemic) [Example 9, (±)-3-hydroxy-quinoxaline-2-carboxylic acid (2-hydroxy-5-oxo-7-oxa-bicyclo[4.1.0]hept-3-en-3-yl)-amide]: the EC50 turned out to be 14 µM in the series with NF-κB [1], 20 µM with NF-κB [2], 7.4 µM in [3] and 23.6 µM in [4]. The compound further showed an IC50 at p65 (RelA) of 7.2 µM. Further, the inhibition at 5 µM at p50 is 11%; on p52, 22%; on RelB, 22%; at c-Rel it was 44%.
`Cc1ccc(C(=O)NC2=CC(=O)C3OC3C2O)c(O)n1` (racemic) [Example 10, (±)-2-hydroxy-N-(2-hydroxy-5-oxo-7-oxa-bicyclo[4.1.0]hept-3-en-3-yl)-6-methyl-nicotinamide]: the EC50 is 19 µM in the series with NF-κB [1], 4.5 µM in the series on NF-κB [2], less than 0.24 µM in [3] and 1.1 µM in series [4]. The IC50 on p65 (RelA) was 2.8 µM. Also, the inhibition at 5 µM at p50 stood at 6%; at p52, 11%; on RelB, 27%; at c-Rel it was 54%.
Turning to etanercept [reference compound], in [5] (Example 2 15 mg/kg s.c. qd 21-35, etanercept 50 ug/mouse ip qd 21-35, P<0.05), the “anti-inflammation effects vs vehicle treated group” value is on record as “statistal significant anti-inflammation effects”. Moreover, in [5] (day 35), the “histological evaluation of joints” value is on record as “significant reduction of inflammation”. In addition, in series [5] (mouse, in vivo), the myeloperoxidase activities entry is “concomitant reduction”.
